From the supplement of paper PMC10307832

Tests used:
Test in all cases: relative viability (nuclei count vs DMSO), 5 days (fraction); higher = more cells survive
[1] = compound: C1=CC=C(C(=C1)C2=CC=C(C=C2)C3=CSC4=C3C(=C(C(=O)N4)C#N)O)O + Nc1ncn([C@H]2C[C@H](O)[C@@H](CO)O2)c(=O)n1 [Decitabine] (partner 2 µM)
Summary of the method: (§1)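 One day after seeding in 1536-well plates, lung cancer cell lines were dosed by pin tool. Dosing was either single-drug or a fixed anchor-drug dose plus five library-drug doses (not always all listed) in √10 steps. After 5 days, nuclei were stained in one fix-and-stain step and counted on 4× images, and relative viability is the nuclei count of treated wells over that of vehicle wells, given as the median of duplicate plates.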

[2] = compound: CC1=CN2C(=O)C=C(N=C2C(=C1)C(C)NC3=CC=CC=C3)N4CCOCC4 [TGX 221] + CS(=O)(=O)N1CCN(Cc2cc3nc(-c4cccc5[nH]ncc45)nc(N4CCOCC4)c3s2)CC1 [Pictilisib] (partner 1 µM)
Summary of the method: as §1

[3] = compound: C1=CC=C(C(=C1)C2=CC=C(C=C2)C3=CSC4=C3C(=C(C(=O)N4)C#N)O)O + CS(=O)(=O)N1CCN(Cc2cc3nc(-c4cccc5[nH]ncc45)nc(N4CCOCC4)c3s2)CC1 [Pictilisib] (partner 1 µM)
Summary of the method: as §1

[4] = compound: O=C(CCCCCCNC(=O)c1cnc(N(c2ccccc2)c2ccccc2)nc1)NO [Ricolinostat] + CS(=O)(=O)N1CCN(Cc2cc3nc(-c4cccc5[nH]ncc45)nc(N4CCOCC4)c3s2)CC1 [Pictilisib] (partner 1 µM)
Summary of the method: as §1

Cell Line | relative viability ([1]; first compound 0.08 µM) | relative viability ([1]; first compound 0.253 µM) | relative viability ([1]; first compound 0.8 µM) | relative viability ([1]; first compound 2.53 µM) | relative viability ([1]; first compound 8 µM) | relative viability ([2]; first compound 0.08 µM) | relative viability ([2]; first compound 0.253 µM) | relative viability ([2]; first compound 0.8 µM) | relative viability ([2]; first compound 2.53 µM) | relative viability ([2]; first compound 8 µM) | relative viability ([3]; first compound 0.8 µM) | relative viability ([3]; first compound 2.53 µM) | relative viability ([3]; first compound 8 µM) | relative viability ([4]; first compound 0.253 µM) | relative viability ([4]; first compound 0.8 µM) | relative viability ([4]; first compound 2.53 µM) | relative viability ([3]; first compound 0.08 µM) | relative viability ([3]; first compound 0.253 µM) | relative viability ([4]; first compound 0.08 µM)
LK-2 | 0.178 | 0.228 | 0.236 | 0.343 | 0.314 | 0.583 | 0.782 | 0.597 | 0.515 | 0.659 | 0.507 | 0.656 | 0.514 | 0.497 | 0.48 | 0.483 |  |  | 
LOU-NH91 | 0.854 | 0.865 | 0.824 | 0.781 | 0.782 | 0.568 | 0.532 | 0.528 | 0.53 | 0.531 | 0.51 | 0.515 | 0.512 | 0.557 | 0.492 | 0.528 | 0.482 | 0.538 | 
LU99A | 0.894 | 0.523 | 0.961 | 0.777 | 1.02 | 0.268 | 0.303 | 0.32 | 0.357 | 0.317 | 0.339 | 0.332 | 0.295 | 0.262 | 0.258 | 0.219 | 0.283 | 0.307 | 0.299
LXF-289 | 0.428 | 0.393 | 0.393 | 0.364 | 0.365 | 0.789 | 0.751 | 0.711 | 0.746 | 0.729 | 0.781 | 0.81 | 0.779 | 0.809 | 0.804 | 0.554 | 0.677 | 0.831 | 0.702
NCI-H23 | 0.305 | 0.33 | 0.337 | 0.327 | 0.312 | 0.518 | 0.465 | 0.446 | 0.439 | 0.451 | 0.563 | 0.458 | 0.396 | 0.572 | 0.475 | 0.309 | 0.439 | 0.462 | 0.381
NCI-H322M | 0.679 | 0.667 | 0.747 | 0.69 | 0.731 | 0.399 | 0.479 | 0.525 | 0.477 | 0.478 | 0.494 | 0.477 | 0.499 | 0.558 | 0.561 | 0.568 | 0.511 | 0.495 | 
NCI-H358 | 0.205 | 0.23 | 0.205 | 0.2 | 0.177 | 0.374 | 0.352 | 0.373 | 0.354 | 0.32 | 0.329 | 0.342 | 0.414 | 0.495 | 0.463 | 0.539 | 0.415 | 0.344 | 0.213
NCI-H441 | 0.28 | 0.3 | 0.286 | 0.242 | 0.233 | 0.486 | 0.447 | 0.456 | 0.511 | 0.508 | 0.593 | 0.546 | 0.452 | 0.55 | 0.426 | 0.453 | 0.437 | 0.596 | 0.42
NCI-H460 | 0.387 | 0.437 | 0.531 | 0.5 | 0.398 | 0.339 | 0.363 | 0.23 | 0.312 | 0.378 | 0.367 | 0.319 | 0.333 | 0.393 | 0.308 | 0.269 | 0.339 | 0.325 | 0.332
NCI-H520 | 0.476 | 0.476 | 0.559 | 0.509 | 0.462 | 0.335 | 0.237 | 0.276 | 0.251 | 0.296 | 0.323 | 0.319 | 0.295 | 0.218 | 0.272 | 0.23 | 0.185 | 0.277 | 
NCI-H596 | 1.02 | 1.79 | 1.09 | 0.898 | 0.891 | 0.4 | 0.439 | 0.409 | 0.389 | 0.466 | 0.395 | 0.373 | 0.378 | 0.399 | 0.378 | 0.335 | 0.178 | 0.407 | 0.399
NCI-H647 |  | 0.532 | 0.407 | 0.439 | 0.279 | 0.407 | 0.404 | 0.406 | 0.37 | 0.412 | 0.515 | 0.377 | 0.389 | 0.42 | 0.415 | 0.456 | 0.226 | 0.449 | 
NCI-H650 | 0.297 | 0.333 | 0.307 | 0.312 | 0.315 | 0.893 | 0.768 | 0.831 | 0.92 | 0.777 | 0.841 | 0.86 | 0.91 | 0.766 | 0.77 | 0.506 | 0.978 | 0.975 | 
NCI-H661 | 0.532 | 0.559 | 0.538 | 0.558 | 0.436 | 0.388 | 0.464 | 0.403 | 0.323 | 0.355 | 0.333 | 0.39 | 0.349 | 0.412 | 0.422 | 0.727 | 0.331 | 0.425 | 
NCI-H727 | 0.815 | 0.932 | 0.79 | 0.843 | 0.81 | 0.455 | 0.464 | 0.402 | 0.43 | 0.356 | 0.427 | 0.353 | 0.308 | 0.409 | 0.623 | 0.291 | 0.376 | 0.407 | 0.305
NCI-H838 | 0.456 | 0.5 | 0.483 | 0.457 | 0.417 | 0.427 | 0.364 | 0.425 | 0.495 | 0.404 | 0.367 | 0.367 | 0.403 | 0.563 | 0.613 | 0.531 | 0.329 | 0.49 | 0.326
NCI-H1355 | 0.362 | 0.391 | 0.351 | 0.333 | 0.366 | 0.444 | 0.437 | 0.426 | 0.362 | 0.365 | 0.416 | 0.325 | 0.447 | 0.418 | 0.419 | 0.316 | 0.478 | 0.541 | 
NCI-H1395 |  | 0.801 | 0.703 | 0.702 | 0.745 | 0.571 | 0.531 | 0.572 | 0.676 | 0.523 | 0.631 | 0.545 | 0.643 | 0.636 | 0.511 | 0.597 |  | 0.533 | 
